Each structure is given as a SMILES string. Like-named read-outs stand apart in the source and are kept apart here. Some results are limits rather than exact numbers.

One data set concerns the target T1, E. coli GroEL/ES (Escherichia coli, UniProt P0A6F5).
T1 construct: made in house; host or cells: GroEL in E. coli DH5α; GroES in E. coli BL21 (DE3)
Description: GroEL/ES-mediated dMDH refolding assay. The settings on record: for selectivity for E. coli GroEL/ES over human HSP60/10 (in words): GroEL/ES-dMDH vs HSP60/10-dMDH IC50; for log(IC50) GroEL/ES-dMDH Refolding: log of IC50 (μM scale), with standard deviation; for inhibition in the GroEL/ES-mediated refolding assays (in words): dMDH and dRho refolding assays. It counts as biochemical. As for the experimental part: Reagent preparation: For these assays, four primary reagent stocks were prepared: 1) GroEUES-dMDH or HSP60/10-dMDH binary complex stock; 2) ATP initiation stock; 3) EDTA quench stock; 4) MDH enzymatic assay stock. Denatured MDH (dMDH) was prepared by 2-fold dilution of MDH (5 mg/ml, soluble pig heart MDH from Roche, product #10127248001) with denaturant buffer (7 M guanidine-HCl, 200 mM Tris, pH 7.4, and 50 mM DTT). MDH was completely denatured by incubating at room temperature for 45 min. The binary complex solutions were prepared by slowly adding the dMDH stock to a stirring stock with GroEL (or HSP60) in folding buffer (50 mM Tris-HCl, pH 7.4, 50 mM KCl, 10 mM MgCl2, and 1 mM DTT), followed by addition of GroES (or HSP10). The binary complex stocks were prepared immediately prior to dispensing into the assay plates and had final protein concentrations of 83.3 nM GroEL (Mr 800 kDa) or HSP60 (Mr 400 kDa), 100 nM GroES or HSP10 (Mr 70 kDa), and 20 nM dMDH in folding buffer. For the ATP initiation stock, ATP solid was diluted into folding buffer to a final concentration of 2.5 mM. Quench solution contained 600 mM EDTA (pH 8.0). The MDH enzymatic assay stock consisted of 20 mM sodium mesoxalate and 2.4 mM NADH in reaction buffer (50 mM Tris-HCl, pH 7.4, 50 mM KCl, and 1 mM DTT).
Assay Protocol: First, 30 μL aliquots of the GroEL/ES-dMDH or HSP60/10-dMDH binary complex stocks were dispensed into clear, 384-well polystyrene plates. […] The chaperonin-mediated refolding cycles were initiated by addition of 20 μL of ATP stock (reagent concentrations during refolding cycle: 50 nM GroEL or HSP60, 60 nM GroES or HSP10, 12 nM dMDH, 1 mM ATP, and compounds of 100 μM to 46 nM, 3-fold dilution series). The refolding reactions were incubated at 37° C. […] Next, the assay was quenched by addition of 10 μL of the EDTA to final concentration of 100 mM. […] A340 nm measurements were recorded at 0.5 minutes (start point) and at successive time points until the amount of NADH consumed reached ˜90% (end point, generally between 20-35 minutes). The differences between the start and end point A340 values were used to calculate the % inhibition of the GroEL/ES or HSP60/10 machinery by the compounds. […] Results presented represent the averages of IC50 values obtained from at least quadriplicate (duplicate of duplicate) replicates.
After generating the compound library, we next employed a series of well-established biochemical assays to evaluate compound inhibitory effects against the GroEUES chaperonin system (See FIG. 6 and FIG. 7). We used E. coli GroEUES as the surrogate chaperonin system for refolding of the reporter enzymes malate dehydrogenase (MDH) and rhodanese (Rho). Briefly, binary complexes are formed between GroEL and denatured MDH or Rho, which are then refolded to their native states upon addition of ATP and the GroES co-chaperonin. Enzymatic activities of refolded native MDH or Rho act as coupled reporters of GroEUES refolding functions since in the presence of chaperonin inhibitors, no functional reporter enzymes are generated.

For a further data set, the target named is T2, native Rho (rhodanese) (Bos taurus, UniProt P00586).
T2 construct: purchased Roche (so in the source) R1756
T2 sequence (P00586 1-297): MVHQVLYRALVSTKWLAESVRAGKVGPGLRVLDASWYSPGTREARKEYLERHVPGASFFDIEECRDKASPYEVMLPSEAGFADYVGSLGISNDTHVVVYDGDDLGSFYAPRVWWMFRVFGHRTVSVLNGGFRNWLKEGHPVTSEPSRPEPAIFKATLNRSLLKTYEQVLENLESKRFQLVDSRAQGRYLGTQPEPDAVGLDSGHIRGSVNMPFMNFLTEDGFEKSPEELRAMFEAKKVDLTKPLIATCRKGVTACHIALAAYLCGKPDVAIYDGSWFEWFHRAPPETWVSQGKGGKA
Kind of data set: Counter-screen for inhibition of native rhodanese enzymatic activity. The format is biochemical. The settings on record: for IC50: read-out: Biochemical Assay IC50 Native Rho Reporter; for log(IC50) Native Rho Reporter: log of IC50 (μM scale), with standard deviation; for inhibition of native Rho enzymatic activity (in words): false-positive counter-screen. As for the experimental part:
Reagent Preparations & Assay Protocol: Reagents were identical to those used in the GroEUES-dRho refolding assay described above; however, the assay protocol differed in the sequence of compound addition to the wells. Compounds were pin-transferred after the 60 minute incubation for the refolding cycle, but prior to the addition of the thiocyanate enzymatic assay stock. Thus, the refolding reactions were allowed to proceed for 60 min at 37° C. in the absence of test compounds, but the enzymatic activity of the refolded rhodanese reporter enzyme was monitored in the presence of test compounds (inhibitor concentration range during the enzymatic reporter reaction is 100 µM to 46 nM-3-fold dilutions). IC50 values for the rhodenase reporter enzyme were determined as described above. Results presented represent the averages of IC50 values obtained from at least quadriplicate (duplicate of duplicate) replicates.
Background: The purpose of a counterscreen is to sort out artefacts and off-target activity.

The nature of another data set: in vitro. The settings on record: human. As for the experimental part: HEK 293 cells were maintained in MEM medium (Corning Cellgro, 10-009 CV) supplemented with 10% FBS (Sigma, F2242). […] Cells at 80% confluence were harvested and diluted in growth medium, then 45 μL of the THLE-3 cells (1,500 cells/well) or HEK 293 cells (1,500 cells/well) were dispensed per well, and plates were sealed with “Breathe Easy” oxygen permeable membranes (Diversified Biotech) and incubated at 37° C., 5% CO2, for 24 h.

[1] abbreviates: read-out: Biochemical Assay IC50 GroEL/ES-dMDH refolding.

T1 sequence (P0A6F5 2-548): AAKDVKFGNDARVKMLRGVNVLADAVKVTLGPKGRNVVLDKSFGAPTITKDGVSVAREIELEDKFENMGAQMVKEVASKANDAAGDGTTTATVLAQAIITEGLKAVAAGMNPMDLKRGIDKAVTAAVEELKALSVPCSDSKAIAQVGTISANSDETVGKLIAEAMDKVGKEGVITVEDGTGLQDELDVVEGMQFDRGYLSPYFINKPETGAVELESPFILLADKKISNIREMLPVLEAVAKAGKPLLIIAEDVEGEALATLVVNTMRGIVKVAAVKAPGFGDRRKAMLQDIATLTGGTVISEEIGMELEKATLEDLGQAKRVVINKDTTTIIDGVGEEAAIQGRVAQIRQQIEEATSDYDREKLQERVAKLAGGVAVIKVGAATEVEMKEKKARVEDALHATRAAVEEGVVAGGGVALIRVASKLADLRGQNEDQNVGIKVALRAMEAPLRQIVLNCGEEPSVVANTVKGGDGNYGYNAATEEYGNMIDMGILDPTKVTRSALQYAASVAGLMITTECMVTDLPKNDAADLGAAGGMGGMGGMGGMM

`O=C(Nc1ccc(Sc2nc3ccccc3s2)cc1)c1ccccc1O` [Compound 8, N-(4-(Benzo[d]thiazol-2-ylthio)phenyl)-2-hydroxybenzamide]: on E. coli GroEL/ES, the “selectivity for E. coli GroEL/ES over human HSP60/10 (in words)” value (shortened to “selectivity for E. coli GroEL/ES”) was “selectively inhibit E. coli GroEUES over human HSP60/10” and the “log(IC50) GroEL/ES-dMDH Refolding” value stood at 1.60 ± 0.26. Also, the IC50 at E. coli GroEL/ES (setting [1]) is 40 µM. Further, on native Rho (rhodanese), the IC50 was > 100 µM.
Turning to `O=C(Nc1cccc(Cl)c1)c1cc(Br)ccc1O` [Compound 11, 5-Bromo-N-(3-chlorophenyl)-2-hydroxybenzamide], at E. coli GroEL/ES, the IC50 is > 100 µM and the “log(IC50) GroEL/ES-dMDH Refolding” value was >2. In addition, on native Rho (rhodanese), the “log(IC50) Native Rho Reporter” value was >2 and the IC50 was > 100 µM.
Regarding `O=C(Nc1ccc(Sc2nc3ccccc3s2)c(Cl)c1)c1cc(Br)cc(Br)c1O` [Compound 1, N-(4-(Benzo[d]thiazol-2-ylthio)-3-chlorophenyl)-3,5-dibromo-2-hydroxybenzamide], the “log(IC50) GroEL/ES-dMDH Refolding” value at E. coli GroEL/ES was 0.23 ± 0.28. The IC50 is 1.7 µM on E. coli GroEL/ES (setting [1]) and > 100 µM at native Rho (rhodanese).
Consider `O=C(Nc1ccccc1)c1cccc(Br)c1O` [Compound 14, 3-Bromo-2-hydroxy-N-phenylbenzamide], for which, at E. coli GroEL/ES, the IC50 is > 100 µM and the “log(IC50) GroEL/ES-dMDH Refolding” value was >2. Also, on native Rho (rhodanese), the “log(IC50) Native Rho Reporter” value is >2 and the IC50 is > 100 µM.
For the molecule `O=C(Nc1ccccc1)c1cc(Br)ccc1O` [Compound 15, 5-Bromo-2-hydroxy-N-phenylbenzamide], at E. coli GroEL/ES, the IC50 was > 100 µM and the “log(IC50) GroEL/ES-dMDH Refolding” value was >2. Also, on native Rho (rhodanese), the “log(IC50) Native Rho Reporter” value is given as >2 and the IC50 is > 100 µM.
For the molecule `O=C(Nc1ccc(Sc2nc3ccccc3s2)cc1)c1cc(Br)cc(Br)c1O` [Compound 5, N-(4-(Benzo[d]thiazol-2-ylthio)phenyl)-3,5-dibromo-2-hydroxybenzamide], the “log(IC50) GroEL/ES-dMDH Refolding” value on E. coli GroEL/ES is on record as 0.43 ± 0.19. In addition, the IC50 at E. coli GroEL/ES (setting [1]) was determined as 2.7 µM.
Take `COc1c(Br)cccc1C(=O)Nc1ccc(Sc2nc3ccccc3s2)cc1` [Compound 34, N-(4-(Benzo[d]thiazol-2-ylthio)phenyl)-3-bromo-2-methoxybenzamide]: the CC50 at 48 h in “in vitro” is > 100 µM.
In the case of `O=C(Nc1ccc(Sc2nc3ccccc3s2)cc1)c1cccc(Br)c1` [Compound 21, N-(4-(Benzo[d]thiazol-2-ylthio)phenyl)-3-bromobenzamide], the IC50 on E. coli GroEL/ES and on native Rho (rhodanese) was > 100 µM each time.
As to `O=C(Nc1cccc(Cl)c1)c1ccccc1O` [Compound 12, N-(3-Chlorophenyl)-2-hydroxybenzamide], on E. coli GroEL/ES, the IC50 was > 100 µM and the “log(IC50) GroEL/ES-dMDH Refolding” value is listed as >2. Moreover, at native Rho (rhodanese), the “log(IC50) Native Rho Reporter” value is >2 and the IC50 was > 100 µM.
On to `O=C(Nc1ccc(Sc2nc3ccccc3s2)c(Cl)c1)c1ccccc1` [Compound 19, N-(4-(Benzo[d]thiazol-2-ylthio)-3-chlorophenyl)benzamide], for which the IC50 on E. coli GroEL/ES and at native Rho (rhodanese) was > 100 µM in each case.
Take `O=C(Nc1ccc(Sc2nc3ccccc3s2)c(Cl)c1)c1cc(Br)ccc1O` [Compound 3, N-(4-(Benzo[d]thiazol-2-ylthio)-3-chlorophenyl)-5-bromo-2-hydroxybenzamide]: on E. coli GroEL/ES, the “selectivity for E. coli GroEL/ES” value is reported as “selectively inhibit E. coli GroEUES over human HSP60/10”, the “inhibition in the GroEL/ES-mediated refolding assays (in words)” value is recorded as “moderate to potent inhibitors” and the “log(IC50) GroEL/ES-dMDH Refolding” value is listed as 1.57 ± 0.35. At E. coli GroEL/ES (setting [1]), the IC50 came to 37 µM. Moreover, on native Rho (rhodanese), the “inhibition of native Rho enzymatic activity (in words)” value was “inactive against the reporter enzymes” and the IC50 was > 100 µM.
Consider `CO[C@H]1/C=C/O[C@@]2(C)Oc3c(C)c(O)c4c(O)c(c(/C=N/N5CCN(C)CC5)c(O)c4c3C2=O)NC(=O)/C(C)=C\C=C\[C@H](C)[C@H](O)[C@@H](C)[C@@H](O)[C@@H](C)[C@H](OC(C)=O)[C@@H]1C` [Rifampicin, rifampicin, reference compound], for which the CC50 at 48 h in “in vitro” was > 100 µM.
Take `O=C(Nc1ccc(Sc2nc3ccccc3s2)c(Cl)c1)c1cccc(Br)c1O` [Compound 2, N-(4-(Benzo[d]thiazol-2-ylthio)-3-chlorophenyl)-3-bromo-2-hydroxybenzamide]: on E. coli GroEL/ES, the “inhibition in the GroEL/ES-mediated refolding assays (in words)” value is given as “moderate to potent inhibitors” and the “log(IC50) GroEL/ES-dMDH Refolding” value turned out to be 0.98 ± 0.23. In addition, the IC50 on E. coli GroEL/ES (setting [1]) came to 9.5 µM. Further, the “inhibition of native Rho enzymatic activity (in words)” value against native Rho (rhodanese) was “inactive against the reporter enzymes”.
Turning to `O=C(Nc1ccc(Sc2nc3ccccc3s2)cc1)c1cccc(Br)c1O` [Compound 6, N-(4-(Benzo[d]thiazol-2-ylthio)phenyl)-3-bromo-2-hydroxybenzamide], on E. coli GroEL/ES, the “inhibition in the GroEL/ES-mediated refolding assays (in words)” value is given as “moderate to potent inhibitors” and the “log(IC50) GroEL/ES-dMDH Refolding” value is listed as 1.52 ± 0.21. Further, the IC50 at E. coli GroEL/ES (setting [1]) was found to be 33 µM. Moreover, on native Rho (rhodanese), the “inhibition of native Rho enzymatic activity (in words)” value is “inactive against the reporter enzymes”.
Take `O=C(Nc1cccc(Cl)c1)c1cc(Br)cc(Br)c1` [Compound 23, 3,5-Dibromo-N-(3-chlorophenyl)benzamide]: at E. coli GroEL/ES, the IC50 is > 100 µM and the “log(IC50) GroEL/ES-dMDH Refolding” value is given as >2. Besides, at native Rho (rhodanese), the “log(IC50) Native Rho Reporter” value is given as >2 and the IC50 is > 100 µM.
`O=C(Nc1ccc(Sc2nc3ccccc3s2)cc1)c1cc(Br)ccc1O` [Compound 7, N-(4-(Benzo[d]thiazol-2-ylthio)phenyl)-5-bromo-2-hydroxybenzamide]: on E. coli GroEL/ES, the “selectivity for E. coli GroEL/ES” value is reported as “selectively inhibit E. coli GroEUES over human HSP60/10”, the “inhibition in the GroEL/ES-mediated refolding assays (in words)” value is listed as “moderate to potent inhibitors” and the “log(IC50) GroEL/ES-dMDH Refolding” value was 1.58 ± 0.34. Besides, the IC50 at E. coli GroEL/ES (setting [1]) turned out to be 38 µM. Also, at native Rho (rhodanese), the “inhibition of native Rho enzymatic activity (in words)” value was “inactive against the reporter enzymes” and the IC50 is > 100 µM.
As for `O=C(Nc1ccc(Sc2nc3ccccc3s2)c(Cl)c1)c1ccccc1O` [Compound 4, N-(4-(Benzo[d]thiazol-2-ylthio)-3-chlorophenyl)-2-hydroxybenzamide], on E. coli GroEL/ES, the “selectivity for E. coli GroEL/ES” value is on record as “selectively inhibit E. coli GroEUES over human HSP60/10” and the “log(IC50) GroEL/ES-dMDH Refolding” value was 1.62 ± 0.32. Also, at E. coli GroEL/ES (setting [1]), the IC50 came out at 42 µM. In addition, the IC50 on native Rho (rhodanese) is > 100 µM.

These data come from patent US20210395210A1, “INHIBITION OF BACTERIAL CHAPERONIN SYSTEMS” (THE TRUSTEES OF INDIANA UNIVERSITY, priority 2018, published 2021).
